Test results reported in ChEMBL document CHEMBL5634079, “Development of novel celastrol-ligustrazine hybrids as potent peroxiredoxin 1 inhibitors against lung cancer” (Eur J Med Chem, 2023).

How the values were obtained:
[1] = Antitumor activity against mouse Lewis lung carcinoma cell line implanted in C57BL/6J mouse assessed as tumor growth inhibition at 1 mg/kg, ip administered every day for 19 days; format: functional; conditions: 456 h, time 19 day, read-out: TGI
A549 [2] = assay: Induction of apoptosis in human A549 cells assessed as early apoptotic cells at 2 uM incubated for 48 hrs by Annexin V-FITC and PI staining based flow cytometric analysis (reference value: 0.76%); format: functional
MDA-MB-231 [3] = assay: Antiproliferative activity against human MDA-MB-231 cells assessed as inhibition of cell growth incubated for 48 hrs by MTT assay; format: functional, cell-based; conditions: MDA-MB-231, 48 h
SK-HEP1 [4] = assay: Antiproliferative activity against human SK-HEP1 cells assessed as inhibition of cell growth incubated for 48 hrs by MTT assay; format: functional, cell-based; conditions: SK-HEP1, 48 h
A549 [5] = assay: Inhibition of cell invasion in human A549 cells incubated for 12 to 48 hrs by crystal violet staining based microscopic analysis; format: functional; conditions: dose 2-4 µM, time 12-48 hrs
NCI-H1975 [6] = assay: Antiproliferative activity against human NCI-H1975 cells assessed as inhibition of cell growth incubated for 48 hrs by MTT assay; format: functional, cell-based; conditions: NCI-H1975, 48 h
A549 [7] = assay: Induction of apoptosis in human A549 cells assessed as late apoptotic cells at 2 uM incubated for 48 hrs by Annexin V-FITC and PI staining based flow cytometric analysis (reference value: 0.73%); format: functional
A549 [8] = assay: Antiproliferative activity against human A549 cells assessed as inhibition of cell growth incubated for 48 hrs by MTT assay; format: functional, cell-based; conditions: A549, 48 h
A549 [9] = assay: Induction of apoptosis in human A549 cells assessed as viable cells at 2 uM incubated for 48 hrs by Annexin V-FITC and PI staining based flow cytometric analysis (reference value: 93.8%); format: functional; conditions: read-out: Activity
SK-HEP1 [10] = assay: Antiproliferative activity against human SK-HEP1 cells assessed as inhibition of cell growth incubated for 48 hrs in presence of ligustrazine by MTT assay; format: functional, cell-based; conditions: SK-HEP1, 48 h
A549 [11] = assay: cells; conditions: Homo sapiens, A549, 48 h
Description: Antiproliferative activity against human A549 cells assessed as inhibition of cell growth incubated for 48 hrs in presence of ligustrazine by MTT assay

[12] = Toxicity in C57BL/6J mouse implanted with mouse Lewis lung carcinoma cell line assessed as decrease in body weight at 0.5 to 1 mg/kg, ip administered every day for 19 days; format: organism-based; conditions: in vivo, 456 h, dose 0.5-1 mg/kg, time 19 day
NCI-H1975 [13] = assay: Antiproliferative activity against human NCI-H1975 cells assessed as inhibition of cell growth incubated for 48 hrs in presence of ligustrazine by MTT assay; format: functional, cell-based; conditions: NCI-H1975, 48 h
[14] = Antiproliferative activity against human LTEP-a2 cells assessed as inhibition of cell growth incubated for 48 hrs by MTT assay; format: functional, cell-based; conditions: LTEP-A2, 48 h
MDA-MB-231 [15] = assay: cells; conditions: Homo sapiens, MDA-MB-231, 48 h
Description: Antiproliferative activity against human MDA-MB-231 cells assessed as inhibition of cell growth incubated for 48 hrs in presence of ligustrazine by MTT assay

A549 [16] = assay: Induction of apoptosis in human A549 cells assessed as necrotic cells at 2 uM incubated for 48 hrs by Annexin V-FITC and PI staining based flow cytometric analysis (reference value: 4.68%); format: functional
A549 [17] = assay: Inhibition of cell migration in human A549 cells assessed as reduction in wound area at 2 uM incubated for 24 hrs by inverted microscopic analysis; format: functional; design: scale not given: the % may be the effect or the level left
[18] = Antiproliferative activity against human LTEP-a2 cells assessed as inhibition of cell growth incubated for 48 hrs in presence of ligustrazine by MTT assay; format: functional, cell-based; conditions: LTEP-A2, 48 h
Peroxiredoxin-1 = target: T1, Peroxiredoxin-1 (Homo sapiens, UniProt Q06830); assay: Inhibition of PRDX1 (unknown origin) in presence of cofactor A/cofactor B/NADPH incubated for 25 mins
T1 sequence (Q06830 whole entry): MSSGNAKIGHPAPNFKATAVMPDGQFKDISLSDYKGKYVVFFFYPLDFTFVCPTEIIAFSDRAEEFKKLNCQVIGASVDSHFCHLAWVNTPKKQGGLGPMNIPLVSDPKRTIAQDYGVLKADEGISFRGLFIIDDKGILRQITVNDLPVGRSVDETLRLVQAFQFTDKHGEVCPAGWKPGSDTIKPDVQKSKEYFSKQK

SK-HEP1 [19] = assay: Antiproliferative activity against human SK-HEP1 cells assessed as inhibition of cell growth incubated for 48 hrs in presence of celastrol by MTT assay; format: functional, cell-based; conditions: SK-HEP1, 48 h
[20] = Antiproliferative activity against human LTEP-a2 cells assessed as inhibition of cell growth incubated for 48 hrs in presence of celastrol by MTT assay; format: functional, cell-based; conditions: LTEP-A2, 48 h
A549 [21] = assay: Antiproliferative activity against human A549 cells assessed as inhibition of cell growth incubated for 48 hrs in presence of celastrol by MTT assay; format: functional, cell-based; conditions: A549, 48 h
MDA-MB-231 [22] = assay: Antiproliferative activity against human MDA-MB-231 cells assessed as inhibition of cell growth incubated for 48 hrs in presence of celastrol by MTT assay; format: functional, cell-based; conditions: MDA-MB-231, 48 h
NCI-H1975 [23] = assay: Antiproliferative activity against human NCI-H1975 cells assessed as inhibition of cell growth incubated for 48 hrs in presence of celastrol by MTT assay; format: functional, cell-based; conditions: NCI-H1975, 48 h

CC1=C(O)C(=O)C=C2C1=CC=C1[C@@]2(C)CC[C@@]2(C)[C@@H]3C[C@](C)(C(=O)O)CC[C@]3(C)CC[C@]12C [CELASTROL]
inhibition in vivo at 1 mg/kg [1]: 71% | Activity (A549 [2]): 5.21% | IC50 (MDA-MB-231 [3]): 4.88 µM | IC50 (SK-HEP1 [4]): 10 µM | inhibition (A549 [5]): Dose-Dependent Effect | IC50 (NCI-H1975 [6]): 6.05 µM | Activity (A549 [7]): 5.92% | IC50 (A549 [8]): 9.28 µM | viability at 2 µM (A549 [9]): 85.6% | IC50 (SK-HEP1 [10]): 9.67 µM | IC50 (A549 [11]): 6.42 µM | Activity [12]: Non-Toxic | IC50 (NCI-H1975 [13]): 5.61 µM | IC50 [14]: 12 µM | IC50 (MDA-MB-231 [15]): 4.86 µM | Activity (A549 [16]): 3.28% | Activity (A549 [17]): 50% | IC50 [18]: 9.5 µM

[O-][n+]1c(CBr)c(CBr)[n+]([O-])c2ccccc21
IC50 (Peroxiredoxin-1; read-out: IC50): 14.8 µM

Cc1nc(C)c(C)nc1C [LIGUSTRAZINE]
IC50 (SK-HEP1 [19]): 9.67 µM | IC50 [20]: 9.5 µM | IC50 (Peroxiredoxin-1): Not Active | IC50 (A549 [8]): > 20 µM | IC50 (A549 [21]): 6.42 µM | IC50 (MDA-MB-231 [22]): 4.86 µM | IC50 (NCI-H1975 [23]): 5.61 µM

CC1=C(O)C(=O)C=C2C1=CC=C1[C@@]2(C)CC[C@@]2(C)[C@@H]3C[C@](C)(C(=O)OCc4nc(C)c(C)nc4C)CC[C@]3(C)CC[C@]12C
IC50 (Peroxiredoxin-1; read-out: IC50): 2.49 µM | IC50 (A549 [8]): 2.59 µM

CC(=O)OC1=C(C)C2=CC=C3[C@@](C)(CC[C@@]4(C)[C@@H]5C[C@](C)(C(=O)OCc6nc(C)c(C)nc6C)CC[C@]5(C)CC[C@]34C)C2=CC1=O
IC50 (Peroxiredoxin-1; read-out: IC50): 0.481 µM | IC50 (A549 [8]): 5.27 µM

CC1=C(OC(=O)C2CC2)C(=O)C=C2C1=CC=C1[C@@]2(C)CC[C@@]2(C)[C@@H]3C[C@](C)(C(=O)NCc4nc(C)c(C)nc4C)CC[C@]3(C)CC[C@]12C
IC50 (MDA-MB-231 [3]): 6.06 µM | IC50 (Peroxiredoxin-1; read-out: IC50): 0.239 µM | IC50 (SK-HEP1 [4]): 2.72 µM | IC50 (NCI-H1975 [6]): 3.15 µM | IC50 (A549 [8]): 2.57 µM | IC50 [14]: 7.46 µM

CC1=C(OC(=O)C2CCOCC2)C(=O)C=C2C1=CC=C1[C@@]2(C)CC[C@@]2(C)[C@@H]3C[C@](C)(C(=O)NCc4nc(C)c(C)nc4C)CC[C@]3(C)CC[C@]12C
IC50 (Peroxiredoxin-1; read-out: IC50): 1.53 µM | IC50 (A549 [8]): 4.28 µM

CC1=C(O)C(=O)C=C2C1=CC=C1[C@@]2(C)CC[C@@]2(C)[C@@H]3C[C@](C)(C(=O)NCc4nc(C)c(C)nc4C)CC[C@]3(C)CC[C@]12C
IC50 (Peroxiredoxin-1; read-out: IC50): 0.165 µM | IC50 (A549 [8]): 3.39 µM

CC1=C(OC(=O)/C=C/c2ccccc2)C(=O)C=C2C1=CC=C1[C@@]2(C)CC[C@@]2(C)[C@@H]3C[C@](C)(C(=O)OCc4nc(C)c(C)nc4C)CC[C@]3(C)CC[C@]12C
IC50 (MDA-MB-231 [3]): 2.13 µM | IC50 (Peroxiredoxin-1; read-out: IC50): 0.525 µM | IC50 (SK-HEP1 [4]): 1.64 µM | IC50 (NCI-H1975 [6]): 1.49 µM | IC50 (A549 [8]): 2.71 µM | IC50 [14]: 3.31 µM

CCCC(=O)OC1=C(C)C2=CC=C3[C@@](C)(CC[C@@]4(C)[C@@H]5C[C@](C)(C(=O)NCc6nc(C)c(C)nc6C)CC[C@]5(C)CC[C@]34C)C2=CC1=O
IC50 (MDA-MB-231 [3]): 3.64 µM | IC50 (Peroxiredoxin-1; read-out: IC50): 0.285 µM | IC50 (SK-HEP1 [4]): 2.78 µM | IC50 (NCI-H1975 [6]): 1.48 µM | IC50 (A549 [8]): 1.56 µM | IC50 [14]: 5.96 µM

CCC(=O)OC1=C(C)C2=CC=C3[C@@](C)(CC[C@@]4(C)[C@@H]5C[C@](C)(C(=O)NCc6nc(C)c(C)nc6C)CC[C@]5(C)CC[C@]34C)C2=CC1=O
IC50 (Peroxiredoxin-1; read-out: IC50): 0.979 µM | IC50 (A549 [8]): 6.57 µM

CC(=O)OC1=C(C)C2=CC=C3[C@@](C)(CC[C@@]4(C)[C@@H]5C[C@](C)(C(=O)NCc6nc(C)c(C)nc6C)CC[C@]5(C)CC[C@]34C)C2=CC1=O
IC50 (Peroxiredoxin-1; read-out: IC50): 1.47 µM | IC50 (A549 [8]): 6.66 µM
